# How the values were obtained:
# [1] = test system: KPC/WCB3 cells orthotopically injected into the pancreas; assay: KPC/WCB3 orthotopic mouse model of pancreatic cancer, histological analysis of pancreata; type: in vivo; conditions: orthotopic KPC/WCB3, C57BL/6J mice; treatment from day 7 for one month; FIG. 4
# Text: This model is constituted by the implantation of KPC/WBC3 cells originating from a spontaneous developed donor tumour in KPC mice into the pancreas of male wildtype C57BL/6J recipient mice. The pathology and tumour microenvironment in this model closely resemble human pancreatic cancer.
# Control animals received normal drinking water and standard chow. One month after initiation treatment was stopped and mice were euthanized. Pancreata were harvested and analysed by histological analysis for level of fibrosis, number of Tregs and number of proliferating CAFs.
# [2] = test system: KPC mouse model of pancreatic ductal adenocarcinoma (PDAC); assay: KPC mouse model of pancreatic cancer, histological analysis of pancreata; type: in vivo; conditions: KPC mice treated from 5 to 11 weeks of age; Compound 2 in mixed chow; FIG. 1
# Text: Control animals received normal drinking water and standard chow.
# [3] = test system: pancreatic cancer; conditions: pancreatic cancer patients, standard treatment; cited from earlier work
compound,measurement,setting,value
"C[C@H](NC(=O)CCc1nc2cccnc2n1Cc1ccc(OC(F)(F)F)cc1)c1ccc(Cl)cc1 [Compound 2, N-[(S)-1-(4-chloro-phenyl)-ethyl]-3-[3-(4-trifluoromethoxy-benzyl)-3H-imidazo[4,5-b]pyridin-2-yl]-propionamide]",Tregs,[1],significantly reduces
same,proliferating CAFs,[1],significantly reduces
same,tumour fibrosis score,[1],limited effect
same,number of low-grade (PanIN-1 and PanIN-2) lesions,[2],reduces
same,tumour burden,[2],without having significant effects
Nc1ccn([C@@H]2O[C@H](CO)[C@@H](O)C2(F)F)c(=O)n1 [gemcitabine],average median overall survival,[3],6 months
same,response rate,[3],5-10%

# Reference: patent US20240216385A1, “A PI3K-DELTA INHIBITOR FOR THE TREATMENT OF PANCREATIC CANCER” (IONCTURA SA, priority 2021, published 2024)
